# Experiment: bioavailability study, serum [1-38]hPTH by radioimmunoassay
# Type: in vivo, rhesus monkeys
# Settings: monkeys, nasal administration
# Procedure: Compositions of Examples 1A, 6 and 9 are administered nasally to rhesus monkeys (n=5) at a dose of 100 μg/kg [1-38]hPTH. A reference composition comprising
# and buffered to pH 5.5 with Na2 HPO4 /citric acid is administered i.v. at a dose of 10 μg/kg.
# Blood is taken after 10, 20, 30, 45, 60, 90, 240 and 360 min after administration and stored deep frozen at -80° C. until analysed. [1-38]hPTH concentrations in serum are analysed using radioimmunoassay techniques providing a limit of detection of 0.2-0.1 ng/ml. In addition urine is collected and stored deep frozen at -80° C. until analysis of cAMP by RIA techniques.
compound,measurement,value
"CC[C@H](C)[C@H](NC(=O)[C@H](CCC(=O)O)NC(=O)[C@H](CO)NC(=O)[C@@H](NC(=O)[C@@H](N)CO)C(C)C)C(=O)N[C@@H](CCC(N)=O)C(=O)N[C@@H](CC(C)C)C(=O)N[C@@H](CCSC)C(=O)N[C@@H](Cc1c[nH]cn1)C(=O)N[C@@H](CC(N)=O)C(=O)N[C@@H](CC(C)C)C(=O)NCC(=O)N[C@@H](CCCCN)C(=O)N[C@@H](Cc1c[nH]cn1)C(=O)N[C@@H](CC(C)C)C(=O)N[C@@H](CC(N)=O)C(=O)N[C@@H](CO)C(=O)N[C@@H](CCSC)C(=O)N[C@@H](CCC(=O)O)C(=O)N[C@@H](CCCNC(=N)N)C(=O)N[C@H](C(=O)N[C@@H](CCC(=O)O)C(=O)N[C@@H](Cc1c[nH]c2ccccc12)C(=O)N[C@@H](CC(C)C)C(=O)N[C@@H](CCCNC(=N)N)C(=O)N[C@@H](CCCCN)C(=O)N[C@@H](CCCCN)C(=O)N[C@@H](CC(C)C)C(=O)N[C@@H](CCC(N)=O)C(=O)N[C@@H](CC(=O)O)C(=O)N[C@H](C(=O)N[C@@H](Cc1c[nH]cn1)C(=O)N[C@@H](CC(N)=O)C(=O)N[C@@H](Cc1ccccc1)C(=O)N[C@H](C(=O)N[C@@H](C)C(=O)N[C@@H](CC(C)C)C(=O)NCC(=O)O)C(C)C)C(C)C)C(C)C [[1-38]hPTH, hPTH[1-38]]","serum levels reached, based on serum concentration and cumulative urinary excretion",therapeutic [1-38]hPTH serum levels are achieved

# — patent publication US5578567A, “Nasal pharmaceutical composition” (Sandoz Ltd., priority 1990, dated 1996)
